Here are results for 16 compounds from US7875647B2, “Heteroaryl-pyrazole derivatives as cannabinoid CB1 receptor antagonists” (Green Cross Corporation, priority 2006, dated 2011).

In assay [1] the test system is DIO mice. Briefly: Chronic effects in DIO mice (body weight change, oral administration for 14 days). Type of assay: in vivo. The following applies: DIO mice (male C57BL/6J), 10 mg/kg, FIG. 1. On the procedure: Male C57BL/6J mice weighing over 38 g were housed 1 per cage on a 12-/12-h light/dark cycle, had free access to food (rodent sterilizable diet) and water, and were experimentally native before testing. Mice were allowed at least 7 days to habituate to the experimental room prior to testing, and testing was conducted during the light period. Mice were maintained and experiments were conducted in accordance with the Institutional Animal Care.
By oral administration, animals received at a volume of 10 ml/kg for 14 days. All control animals received 10% DMSO dissolved in deionized water.
The vehicles 10% DMSO treated group were comprised of 5 mice in oral test. There were 6 mice in each of the other experimental groups (n=6 in each group). By oral administration, the losing weight was checked everyday for the drug treated group and the control group.

For assay [2], the target named is T1, Cannabinoid-1 receptor (CB1R) (Rattus norvegicus, UniProt P20272).
T1 construct: The tissue obtained from the brain of SD rats was homogenized; from tissue; host or cells: brain of SD rats (membrane pellet of the homogenate)
T1 sequence (P20272 whole entry): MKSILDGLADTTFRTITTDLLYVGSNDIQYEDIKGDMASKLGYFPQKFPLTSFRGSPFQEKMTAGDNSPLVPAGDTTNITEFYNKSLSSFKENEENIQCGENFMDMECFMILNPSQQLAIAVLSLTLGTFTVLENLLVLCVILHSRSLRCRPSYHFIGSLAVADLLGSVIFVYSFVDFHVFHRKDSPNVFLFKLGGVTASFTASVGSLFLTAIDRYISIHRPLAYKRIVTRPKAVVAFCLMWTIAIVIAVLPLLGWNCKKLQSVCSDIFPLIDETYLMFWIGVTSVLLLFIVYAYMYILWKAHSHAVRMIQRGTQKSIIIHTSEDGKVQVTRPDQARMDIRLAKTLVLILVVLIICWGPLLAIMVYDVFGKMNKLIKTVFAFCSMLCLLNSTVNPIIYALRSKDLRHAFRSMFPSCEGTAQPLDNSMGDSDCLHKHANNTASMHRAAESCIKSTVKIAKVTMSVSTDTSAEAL
Briefly: Cannabinoid-1 receptor (CB1R) binding affinity assay ([3H]CP-55940, rat CB-1 receptor binding protocol). To be noted: brain tissue of SD rats, [3H]CP-55940, 30° C. 60 min; for pIC50: read-out: IC50.

Molecules are shown by their SMILES. pIC50: −log10 of the molar value. Read-outs that look alike come from different tables or passages of the source.

Take `CC(C)(C)c1nnc(-c2nn(-c3ccc(Cl)cc3Cl)c(-c3ccc(Cl)cc3)c2Cn2cncn2)s1` [Example 502, 2-(4-((1H-1,2,4-triazol-1-yl)methyl)-5-(4-chlorophenyl)-1-(2,4-dichlorophenyl)-1H-pyrazol-3-yl)-5-tert-butyl-1,3,4-thiadiazole]: the “Body weight change from day 0” value in assay [1] is reported as “observed on all days”.

In the case of `Cc1c(C(=O)NN2CCCCC2)nn(-c2ccc(Cl)cc2Cl)c1-c1ccc(Cl)cc1` [rimonabant, reference compound], in assay [1], the “Body weight change from day 0” value is listed as “observed on all days”.

As a reminder, the pIC50 is the IC50 on a negative log10 scale, so that one unit is a factor of ten. For the compound `Cc1c(-c2nnc(C3(C(F)(F)F)CC3)o2)nn(-c2ccc(Cl)cc2Cl)c1-c1ccc(Cl)cc1` [Example 132, 2-(5-(4-chlorophenyl)-1-(2,4-dichlorophenyl)-4-methyl-1H-pyrazol-3-yl)-5-(1-(trifluoromethyl)cyclopropyl)-1,3,4-oxadiazole], the pIC50 in assay [2] was 8.07. For the same compound, the “Body weight change from day 0” value in assay [1] is on record as “observed on all days”.

As to `CCc1c(-c2nnc(C3(C(F)(F)F)CC3)o2)nn(-c2ccc(Cl)cc2Cl)c1-c1ccc(Cl)cc1` [Example 155, 2-(5-(4-chlorophenyl)-1-(2,4-dichlorophenyl)-4-ethyl-1H-pyrazol-3-yl)-5-(1-(trifluoromethyl)cyclopropyl)-1,3,4-oxadiazole], the “Body weight change from day 0” value in assay [1] was “observed on all days”.

Turning to `Cc1c(-c2nnc(C(C)C3CCCCC3)o2)nn(-c2ccc(Cl)cc2Cl)c1-c1ccc(Cl)cc1` (centres unmarked) [Example 62, 2-(5-(4-chlorophenyl)-1-(2,4-dichlorophenyl)-4-methyl-1H-pyrazol-3-yl)-5-(1-cyclohexylethyl)-1,3,4-oxadiazole], the pIC50 in assay [2] is 7.29.

As for `Cc1c(-c2nnc(C3(c4ccccn4)CC3)o2)nn(-c2ccc(Cl)cc2Cl)c1-c1ccc(Cl)cc1` [Example 269, 2-(5-(4-chlorophenyl)-1-(2,4-dichlorophenyl)-4-methyl-1H-pyrazol-3-yl)-5-(1-(pyridin-2-yl)cyclopropyl)-1,3,4-oxadiazole], the pIC50 in assay [2] was 7.70.

On to `Cc1c(-c2nnnn2Cc2cccnc2)nn(-c2ccc(Cl)cc2Cl)c1-c1ccc(Cl)cc1` [Example 585, 3-((5-(5-(4-Chlorophenyl)-1-(2,4-dichlorophenyl)-4-methyl-1H-pyrazol-3-yl)-1H-tetrazol-1-yl)methyl)pyridine], for which the pIC50 in assay [2] is 6.99.

Turning to `Clc1ccc(-c2c(Cn3cncn3)c(-c3nnc(C4(c5ccc(Cl)cc5)CCCC4)o3)nn2-c2ccc(Cl)cc2Cl)cc1` [Example 324, 2-(4-((1H-1,2,4-triazol-1-yl)methyl)-5-(4-chlorophenyl)-1-(2,4-dichlorophenyl)-1H-pyrazol-3-yl)-5-(1-(4-chlorophenyl)cyclopentyl)-1,3,4-oxadiazole], the pIC50 in assay [2] is 8.33.

Turning to `Cc1c(-c2n[nH]c(C3CCCCC3)n2)nn(-c2ccc(Cl)cc2Cl)c1-c1ccc(Cl)cc1` [Example 612, 3-(5-(4-Chlorophenyl)-1-(2,4-dichlorophenyl)-4-methyl-1H-pyrazol-3-yl)-5-cyclohexyl-1H-1,2,4-triazole], the pIC50 in assay [2] was 6.64.

`Cc1c(-c2nnnn2C2CCCCCC2)nn(-c2ccc(Cl)cc2Cl)c1-c1ccc(Br)cc1` [Example 608, 5-(5-(4-bromophenyl)-1-(2,4-dichlorophenyl)-4-methyl-1H-pyrazol-3-yl)-1-cycloheptyl-1H-tetrazole]: the pIC50 in assay [2] was 7.78.

`Clc1ccc(-c2c(Br)c(-c3nnc(C4CCC4)o3)nn2-c2ccc(Cl)cc2Cl)cc1` [Example 340, 2-(4-bromo-5-(4-chlorophenyl)-1-(2,4-dichlorophenyl)-1H-pyrazol-3-yl)-5-cyclobutyl-1,3,4-oxadiazole]: in assay [2], the negative logarithm of the IC50 (pIC50) is 7.45.

As usually defined, the IC50 is the concentration at which inhibition is half-maximal. The compound `CCc1c(-c2nnc(C3(CC)CC3)o2)nn(-c2ccc(Cl)cc2Cl)c1-c1ccc(Br)cc1` [Example 279, 2-(5-(4-bromophenyl)-1-(2,4-dichlorophenyl)-4-ethyl-1H-pyrazol-3-yl)-5-(1-ethylcyclopropyl)-1,3,4-oxadiazole] yielded an IC50 in assay [2] (IC50(nM)) of 12.8 nM.

Regarding `CC(C)(C)c1nnc(-c2nn(-c3ccc(Cl)cc3Cl)c(-c3ccc(Br)cc3)c2CF)s1` [Example 525, 2-(5-(4-bromophenyl)-1-(2,4-dichlorophenyl)-4-(fluoromethyl)-1H-pyrazol-3-yl)-5-tert-butyl-1,3,4-thiadiazole], the pIC50 in assay [2] was 8.05.

For the compound `CCc1c(-c2nnc(C3(c4ccc(Cl)cc4Cl)CC3)s2)nn(-c2ccc(Cl)cc2Cl)c1-c1ccc(Cl)cc1` [Example 482, 2-(5-(4-chlorophenyl)-1-(2,4-dichlorophenyl)-4-ethyl-1H-pyrazol-3-yl)-5-(1-(2,4-dichlorophenyl)cyclopropyl)-1,3,4-thiadiazole], the pIC50 in assay [2] was 8.40.

For `CC(C)(C)c1nnc(-c2nn(-c3ccc(Cl)cc3Cl)c(-c3ccc(Cl)cc3)c2CN2CCCC2=O)o1` [Example 306, 1-((3-(5-tert-butyl-1,3,4-oxadiazol-2-yl)-5-(4-chlorophenyl)-1-(2,4-dichlorophenyl)-1H-pyrazol-4-yl)methyl)pyrrolidin-2-one], the pIC50 in assay [2] is 7.03.

For `CCc1c(-c2nnc(C(C)C)s2)nn(-c2ccc(Cl)cc2Cl)c1-c1ccc(Br)cc1` [Example 453, 2-(5-(4-bromophenyl)-1-(2,4-dichlorophenyl)-4-ethyl-1H-pyrazol-3-yl)-5-isopropyl-1,3,4-thiadiazole], the pIC50 in assay [2] was 7.57.
